# What was measured:
# AMPA receptors GluR1 = assay: AMPA glutamate receptor-1 immunohistochemical staining of hippocampus; format: in vivo, male Wistar rats
# Description: Aged rats (male Wistar rats, 18-20 months old) were divided into four groups: two vehicle-treated (groups 1 and 3) and two G-2-AllylP treated (groups 2 and 4) (all groups n=6-8). Cyclic G-2-AllylP was synthesised by the Department of Medicinal Chemistry and dissolved in normal saline before the treatment. On day 1 a single dose of cyclic G-2-AllylP was given centrally (20 ng/animal, i.c.v.) to the animals in groups 2 and 4; saline was administered to groups 1 and 3. The memory tests using Novel Object Recognition Test started either on day 3 (groups 1 and 2) or 24 (groups 3 and 4) after the treatment. On the completion of the NORT, the rats were killed with an overdose of sodium pentobarbital and were perfused transcardially with normal saline followed by 10% formalin. Tissues collected at day 7 in groups 1 and 2, and at day 28 from groups 3 and 4. The brains were kept in the same fixative for a minimum of 2 days before being processed using a standard paraffin embedding procedure. Briefly, small blocks (10×10×3 mm) of tissue were fixed for up to 24 hrs. The blocks were then infiltrated and embedded with paraffin and cut in ribbons and mounted on slides. […]
# The following antibodies were used: • i) primary rabbit antibody to NMDA NR1 subunit, at 1:200 concentration in buffer, incubated for 48 hrs (Chemicon—AB1516), followed by Sigma fluorescent secondary antibody (alexaFluor 394), at 1:200 dilution, incubated for 24 hours at 40C. • ii) primary antibody to AMPA GluR1 subunit, at 1:30 concentration in buffer, incubated for 48 hrs (Chemicon—AB1504) followed by 3,3′-diaminobenzidine (DAB) at 1:200 dilution, incubated for 24 hours at 40C. • iii) Primary antibody to mSynaptophysin (Sigma—S5768), at 1:200 concentration in buffer, followed by DAB at 1:200 dilution, incubated for 24 hours at 40C. • iv) Primary antibody to rKrox-24 (Santa Cruz—catalogue number SC-189) at 1:200 concentration in the buffer, followed by anti-rabbit secondary antibody at concentration of 1:200 dilution, incubated for 24 hours at 40C. • y) Antibodies were detected using light microscopy. […]
# [1] = tested on: fmr1-knockout mice and wild-type mice; assay: Marble burying; format: in vivo
# Description: Mice were placed in an enclosed environment with a bed of wood shavings. Ten (10) marbles were introduced into the environment, and the number of marbles buried was determined by visual observation (median±interquartile range (IQR)).
# ERK1/2 = assay: Phosphorylated ERK by Western blot; format: in vivo, mice; conditions: full brain lysates; fmr1-knockout animals vs vehicle
# Description: Phosphorylation levels of ERK1/2 and Akt of full brain lysates were evaluated using Western blots. The mice were sacrificed and the brains removed 12 days after the last injection, and immediately after the last behavioral test. Other studies measured pERK and pAkt in blood lymphocytes. The results of Western analysis were normalized to the amount of GAPDH protein seen in each blot.
# [2] = tested on: heterozygous Shank3-deficient mice; assay: Shank3-deficient mice: male-female social interactions and ultrasonic vocalizations; format: in vivo; conditions: Shank3-deficient groups; 15 or 60 mg/kg oral b.i.d 14 days; vs placebo
# Description: 1 to 3 month old wild-type and heterozygous Shank3-deficient mice are divided into 4 treatment groups: placebo treated wild-type, placebo treated Shank3-deficient group and two Shank3-deficient cG-2-AllylP treated groups. The animals are given placebo (water) or cG-2-AllylP formulated in water administered orally, b.i.d for 14 days. cG-2-AllylP is administered at two doses: 15 or 60 mg/kg.
# Behavioral assessments are made at several time points, and include analysis of social interactions and ultrasonic social communication, in line with the methodology described by Bozdagi et al. Briefly, male-female social interactions in each treatment group are evaluated. The subject males are group-housed and individually tested in clean cages with clean litter. Each testing session lasts 5 min. […] Videos from the male subjects are subsequently scored by an investigator uninformed of the subject's genotype and treatment group on measures of nose-to-nose sniffing, nose-to-anogenital sniffing and sniffing of other body regions, using Noldus Observer software (Noldus Information Technology, Leesburg, Va., USA). Ultrasonic vocalizations are identified manually by two highly trained investigators blinded to genotype/treatment group information, and summary statistics are calculated using the Avisoft package. […] Data are analysed using an unpaired Student's t-test.
# p-ERK1/2 = assay: Phospho-flow cytometry of lymphocytes, p-ERK1/2; format: in vivo; conditions: fmr1-knockout mice; 15, 30, 60 and 240 minutes after a single treatment
# Text: Lymphocytes are isolated from five fmr1-knockout and five wild-type titter mate control mice, per study time after injection with cG-2-AllylP. Lymphocytes are examined for activation of two signaling effectors, p-ERK1/2 and p-Akt using phosphorylation status as a measure of activation by flow cytometry (phospho-flow).
# 1. Flow cytometry total and phosphorylated ERK in lymphocytes
# [3] = tested on: Male patients having Fragile X Syndrome
# Description: Symptoms are evaluated using one or more of the clinical evaluative tools discussed herein above. Each patient is scored according to one or more clinical evaluative tool for one or more of Repetitive Behavior (RBB), Anxiety, and Sociability. A Clinical Global Impression-Severity (CGI-S) score of 4 or greater, or an ABC total score of 30 or greater are enrolled.
# The enrolled patients are divided into groups. […] Placebo (n=20) is strawberry diluent and water.
# Efficacy is determined using Clinical Global Impression of Severity (CGI-S), Clinical Global Impression of Improvement (CGI-I), Fragile X Syndrome Rating Scale, clinician-completed Fragile X Domain Specific Concerns (Visual Analog Scale), Caregiver Top Three Concerns (Visual Analogue Scale), Aberrant Behavior Checklist, Vineland Adaptive Behavior Scale, CASI-16, CYBOCS-PDD, seizure diary, computerized eye tracking, computerized measurement of cognition using the KiTap, and the Expressive Language Sampling Task.
# Serum levels and changes of standard hematology and chemistry parameters (including thyroid function) are calculated from Baseline through to Day 70. Fundoscopy and tonsil size is documented at Baseline, and Days 14, 28, 42, 36, 70 and 84. […] ECG is assessed at Screening, Baseline, Days 28, 42, 36 and 70. […]
smiles,measurement,setting,value
"C=CC[C@]12CCCN1C(=O)CNC2=O [cG-2-AllylP, (8aS)-Allyl-hexahydropyrrolo[1,2-a]pyrazine-1,4-dione]",number of AMPA receptors GluR1,"AMPA receptors GluR1; CA1 granular cell layer, day 28",significant increase in the number of AMPA receptors
same,number of AMPA receptors GluR1,"AMPA receptors GluR1; CA1 stratum oriens, day 28",significant increase in the number of AMPA receptors
same,number of AMPA receptors GluR1,"AMPA receptors GluR1; CA3, day 7 or 28, 20 ng/animal i.c.v.",no change in the number of receptors
same,marbles buried,[1]; fmr1-knockout animals,80%
same,number of marbles buried (median),[1]; fmr1-knockout animals,8 of 10 marbles
same,marbles buried,[1]; wild-type mice,100%
same,number of marbles buried,[1]; wild-type mice,10 out of 10
same,ERK phosphorylation,ERK1/2,significantly reduced ERK phosphorylation
same,cumulative duration of total social sniffing,[2],significant increase in the cumulative duration of total social sniffing
same,number of ultrasonic vocalizations,[2],increased number of ultrasonic vocalizations
same,mean fluorescent intensity (MFI) for p-ERK1/2,p-ERK1/2,decreases at all time points
same,clinical outcomes (evaluative tools),"[3]; 35 or 70 mg/kg b.i.d. oral, 28 days",clinically relevant and significant effects to improve clinical outcomes
same,pERK and pAkt levels,[3]; peripheral lymphocytes,normalizes pERK and pAkt levels
